Assay results from ChEMBL document CHEMBL3507680, “University of Dundee, Gates Library screen for HepG2 cell viability”.

Test: Human HepG2 cell viability assay in 384 well format
Assay type: toxicity, cell-based
Parameters: dose 125 nL, time 70.5 hour; concentration not given beside the values
Conditions: HepG2 cells, read-out: Inhibition

| Structure (SMILES) | cytotoxicity at 70.5 h [%] |
| --- | --- |
| Cc1nn(C)c(C)c1C1CCCN1C(=O)CCCn1cccn1 (centres undefined) | -14.1 |
| COCC(c1ccccn1)N(C)C(=O)c1cc(-c2cccn2C)n[nH]1 (centres undefined) | -10.6 |
| CCc1cnc(NCC(C)Oc2cccnc2)nc1 (centres undefined) | -5.39 |
| CCn1nc(C)c2nnn(CC(=O)Nc3ccccc3)c(=O)c21 | -10.7 |
| CCC(C)C(=O)NCc1ccc(-n2cncn2)nc1 (centres undefined) | -6.68 |
| O=C(c1cccnc1)N1CCn2nnc(COc3cccnc3)c2C1 | -3.89 |
| Cc1cccc2c1nc1n2[C@@H](CNC(=O)c2ccccn2)COC1 | -1.91 |
| CN(C)c1ccc(-c2noc([C@@H]3CCCN3)n2)cn1 | 6.36 |
| CCNC(=O)[C@@H]1C[C@H](NC(=O)Cn2ccnc2)CN1Cc1ccsc1 | 14.3 |
| Cc1noc(C)c1CN1C[C@H](OCC(=O)N(C)C)[C@H]2COC[C@H]21 | -6.89 |
| Cc1c(CN2CC[C@@H](N3CCC(O)CC3)[C@H](O)C2)[nH]c2ccc(Cl)cc12 | -0.941 |
| O=C1[C@@H]2CCN(C3CCOCC3)C[C@@H]2OCCN1Cc1cccnc1 | -16 |
| CC(C)NC(=O)C1CN(C(=O)c2cccs2)CC12CCOCC2 (centres undefined) | -1.8 |
| CN(Cc1cncnc1)[C@H]1CN(C(=O)c2ccco2)[C@@H]2CCCO[C@@H]21 | -10.9 |
| COc1ccc(COCC(O)CNC(=O)c2ccncc2)cc1 (centres undefined) | -1.56 |
| O=C(c1ccoc1)N1CC[C@H]2[C@H]1CCN2S(=O)(=O)C1CC1 | 13.5 |
| O=C(c1ncccn1)N1C[C@@H]2CN(Cc3cccnc3)CCO[C@@H]2C1 | -5.35 |
| COc1cccc(Cl)c1C(C(=O)O)N(C)Cc1c(C)n[nH]c1C (centres undefined) | -12.4 |
| CCC[C@H]1CN(c2cncc(C(=O)N3CCCCC3)n2)C[C@@H]1N(C)C | -3.35 |
| Cc1cc(CC(C)NC(=O)Cc2cc(F)ccc2C)[nH]n1 (centres undefined) | 3.68 |
| COCCOc1ncccc1CNC(=O)N1CCOCC1 | -7.27 |
| CCC(NCc1cccc(Cl)c1)c1ccccc1OCC(=O)NC (centres undefined) | -1.52 |
| Cn1c(Cn2cccn2)nnc1C1CCN(Cc2cccnc2)CC1 | -3.7 |
| Cn1cnnc1C1CCCN(C(=O)c2cc(C3CC3)on2)C1 (centres undefined) | -10.9 |
| Cc1ccc2c(c1)c(C)cc(=O)n2CCC(=O)O | -6.14 |
| Cn1cc(CCNC(=O)NCc2nnc3n2CCC3)cn1 | -22.4 |
| CN(Cc1cccc2cccnc12)C1CCS(=O)(=O)C1 (centres undefined) | 24.2 |

| Structure (SMILES) | cytotoxicity at 70.5 h [%] |
| --- | --- |
| CCc1ccccc1NC(=O)N1CCn2cnc(COC)c2C1 | -7.61 |
| CN(C)C(=O)Cn1c2c(ccc1=O)CCN(Cc1cnn(C)c1)CC2 | 2.17 |
| CCc1nc(CC2CN(c3ncnc4sc(C)c(C)c34)CCO2)no1 (centres undefined) | -19.7 |
| CC(C)N1CC2(CCCN(c3ccccn3)C2)CCC1=O (centres undefined) | -6.62 |
| CCn1ncnc1CN1CCc2[nH]cnc2C1c1ccccn1 (centres undefined) | 14.3 |
| CN1CCN(C(=O)Cn2ccc3c(Cl)cccc32)CC1 | -12.2 |
| COCc1ccccc1CNC(=O)CNc1ccccc1C(C)=O | 2.64 |
| Cc1ccc(CN2CCC3(CC2)C(c2ccccc2)CC(=O)N3C)o1 (centres undefined) | 0.715 |
| COCC(=O)N1CCC(c2nccn2CC2CC2)CC1 | -8.88 |
| Cn1ccnc1CC1CCCN(C(=O)Nc2cccn(C)c2=O)C1 (centres undefined) | -2.41 |
| CC(=O)Nc1nc(C)c(S(=O)(=O)NCCc2cccnc2)s1 | 1.62 |
| Cc1ccc(C(=O)N(C)Cc2csc(C)n2)c(=O)[nH]1 | 1.68 |
| CSCC1CCN(C(=O)c2ccccc2NCc2cccnc2)C1 (centres undefined) | -8.12 |
| COCCN(C)C[C@H]1C[C@H](CO)CN(C(=O)c2ccc(=O)n(C)c2)C1 | -3.23 |
| COc1ccc(N2CCCC3(C2)CN(c2ncccn2)CCO3)cc1 (centres undefined) | -2.45 |
| COCCN1C[C@@H](C)[C@@]2(COCCN(C(=O)c3ccno3)C2)C1 | -1.41 |
| CNS(=O)(=O)c1ccc(CN2CCCN(CC(C)C)CC2)cc1 | -0.0493 |
| COc1cc(CN2CC[C@@]3(CCCO3)[C@@H](O)C2)ccc1F | -7.93 |
| CCc1noc(C(C)N2CCC(O)CC2)n1 (centres undefined) | -10.2 |
| O=C(C1CCC1)N1C[C@@H](c2ccsc2)[C@@H]2CN(C3CCCCC3)CC[C@@H]21 | 14.8 |
| Cc1cccc(C(=O)N2CCCN(Cc3cnn(C)c3)CC2)n1 | -19.9 |
| COc1ccc(CNC(=O)Nc2cccnc2N2CCCC2)cc1 | 20.6 |
| CN(CCc1ccccc1)C(=O)CN1C(=O)OC[C@@H]1c1ccccc1 | 23.5 |
| COCCc1ncc(CN2CCCC(C(=O)c3ccccc3)C2)cn1 (centres undefined) | -26 |
| CN1C[C@@H](NC(=O)c2ccccc2)C[C@H]1c1nc(-c2cnccn2)no1 | 10.6 |
| Cc1cc(C)n(CC2CCCN2C(=O)CCc2ccco2)n1 (centres undefined) | -14.5 |
| CCc1noc(C(C)N2CCN(c3ccc(C#N)cn3)CC2)n1 (centres undefined) | -2.7 |

| Structure (SMILES) | cytotoxicity at 70.5 h [%] |
| --- | --- |
| O=C(NCC1CCCCC1)c1nnn(-c2ccc(Br)cc2)n1 | -6.14 |
| Cc1ccc(F)cc1-n1c(CCCN2CCOCC2)n[nH]c1=O | -7.44 |
| N#Cc1ccc(C(=O)N2CC[C@H]3[C@@H]2CCC(=O)N3c2ccccc2)cc1 | -12 |
| CCN(C)C1COC2(CCN(C(=O)c3ccc4[nH]ccc4c3)CC2)C1 (centres undefined) | -11 |
| CC(c1cccnc1)N1CCN(C(=O)NCc2cnn(C)c2)CC1 (centres undefined) | -1.81 |
| CCc1ncc2c(n1)CN(CCCOc1ccc(C#N)cc1)CC2 | -0.432 |
| O=C(NC1CC(F)(F)C1)[C@]12COC[C@H]1CN(Cc1cccnc1)C2 | -10.6 |
| CC(C)(C)NC(=O)N1CCCn2nc(C(=O)Nc3ccccc3)cc2C1 | -12.5 |
| CC(C)(C)c1ncc(C(=O)NCCNS(C)(=O)=O)s1 | -7.98 |
| Cc1ccc(C(=O)N2CCC3(CC2)c2ccccc2[C@@H](N)[C@@H]3O)c(=O)[nH]1 | -7.97 |
| COC(=O)C1CCN(C(=O)NCC(C)Cc2cccs2)CC1 (centres undefined) | -14.5 |
| O=C(Nc1ccccc1)C1CN(Cc2ccco2)CC12CCOCC2 (centres undefined) | -10.6 |
| NC(=O)NCCC(=O)N1CCC(c2cc(Cc3ccccc3)n[nH]2)CC1 | -6.87 |
| O=c1ccc2c([nH]1)CCC(NS(=O)(=O)C1CC1)C2 (centres undefined) | -4.74 |
| CCc1nc(CNCC2CCCN2c2cccnn2)no1 (centres undefined) | -4.56 |
| Cn1ccnc1CN1CCCN(C(=O)c2ccc3ccccc3c2)CC1 | 1.95 |
| O=C(Nc1cccnc1-n1cc(Cl)cn1)C1CCCC1 | -29.5 |
| Cc1nc(C)n(CC2CCCN2Cc2cn(-c3ccccc3)nn2)n1 (centres undefined) | 2.44 |
| CCc1ncc2c(n1)CN(C(=O)Cc1cc(OC)cc(OC)c1)C2 | -14 |
| O=C(CCc1nnc(-c2ccccc2)o1)N1CCCC1c1ccccn1 (centres undefined) | 1.97 |
| O=C(NCc1cc(O)ncn1)C1COc2ccccc2C1 (centres undefined) | -8.68 |
| CN(C)CCN(C)C(=O)Nc1cc(F)cc(N2CCCC2)c1 | -6.32 |
| COCCNC(=O)N1CCN(C(=O)c2nsc3ccc(C)cc23)CC1 | -17.5 |
| CC(=O)N1CCCCC1c1nc(C)cc(-c2ccccc2C(=O)O)n1 (centres undefined) | -1.42 |
| Cc1cc(C2CCCN2Cc2ccc(S(=O)(=O)N(C)C)o2)on1 (centres undefined) | -1.52 |
